In EPA's aquatic toxicity sets:

Each molecule was assayed on Daphnia magna (assay: 48 h LC50 (-log10 mol/L); higher = more toxic).

SMILES | 48 h LC50 (-log10 mol/L)
Cc1ncc2n1-c1ccc(Cl)cc1C(c1ccccc1F)=NC2 | 6.21
Cc1cc(Cl)cc(Cl)c1O | 5.63
c1ccc2c(c1)cc1ccc3cccc4ccc2c1c34 | 6
CC(C)(Oc1ccc(Cl)cc1)C(=O)O | 3.47
ClC1=C(Cl)[C@]2(Cl)[C@@H]3[C@@H](Cl)[C@H]4O[C@H]4[C@@H]3[C@@]1(Cl)C2(Cl)Cl | 6.21
CO/N=C(/C(=O)OC)c1ccccc1CO/N=C(\C)c1cccc(C(F)(F)F)c1 | 5.74
Brc1ccc(Oc2cc(Br)c(Br)cc2Br)c(Br)c1 | 7.02
Nc1ccn([C@H]2CC[C@@H](CO)O2)c(=O)n1 | 2.07
CSc1nc(NC2CC2)nc(NC(C)(C)C)n1 | 4.49
Cc1cc(Cl)ccc1OCC(=O)O | 3.05
O=[N+]([O-])c1ccc(Cl)cc1 | 4.31
CCNc1nc(Cl)nc(NCC)n1 | 3.33
CC(C)N(C(=O)SCC(Cl)=C(Cl)Cl)C(C)C | 6.46
Clc1cc(Cl)c(-c2ccccc2)cc1Cl | 5.64
CN(C)C(=S)SSC(=S)N(C)C | 6.06
CCCCCCCCc1ccc(O)cc1 | 6.36
CCNC(=S)NCC | 2.84
O=[N+]([O-])c1ccc(Cl)c([N+](=O)[O-])c1 | 5.4
Cc1ccc2sccc2c1 | 4.03
CBr | 4.63
CCOP(=O)(NC(C)C)Oc1ccc(SC)c(C)c1 (stereo unspecified) | 8.11
COc1c(O)cc(Cl)c(Cl)c1Cl | 5.53
CN(C)C(=O)Nc1ccc(Oc2ccc(Cl)cc2)cc1 | 4.99
CN(C)c1nc(=O)n(C2CCCCC2)c(=O)n1C | 3.22
CCCCC(CC)COP(=O)(Oc1ccccc1)Oc1ccccc1 (stereo unspecified) | 6.38
CCOP(=O)(OCC)OC(=CCl)c1ccc(Cl)cc1Cl | 6.56

SMILES | 48 h LC50 (-log10 mol/L)
CCCCCCCCCCC[C@@H](C[C@@H]1OC(=O)[C@H]1CCCCCC)OC(=O)[C@H](CC(C)C)NC=O | 4.85
ClCC1CO1 (stereo unspecified) | 3.59
Cc1nc2n(c(=O)c1CCN1CCC(c3noc4cc(F)ccc34)CC1)CCCC2 | 4.83
O=[N+]([O-])c1ccc(Oc2c(Cl)cc(Cl)cc2Cl)cc1 | 5.88
Cc1nc(N(C)C)nc(OC(=O)N(C)C)c1C | 7.04
CN(C)[C@@H]1C(=O)C(C(N)=O)=C(O)[C@@]2(O)C(=O)C3=C(O)c4c(O)ccc(Cl)c4[C@@](C)(O)[C@H]3C[C@@H]12 | 3.57
CC/C(=C(/CC)c1ccc(O)cc1)c1ccc(O)cc1 | 5.37
CN=C(NC#N)NCCSCc1nc[nH]c1C | 2.53
Cc1ccc(C(=O)c2cc(O)c(O)c([N+](=O)[O-])c2)cc1 | 4.14
O=S1OC[C@@H]2[C@H](CO1)[C@]1(Cl)C(Cl)=C(Cl)[C@@]2(Cl)C1(Cl)Cl (stereo partly specified) | 6.08
CC(C)CCCCCCCCCCNCCCCCCCCCCC(C)C | 6.54
Clc1ccc(-c2ccc(Cl)c(Cl)c2Cl)c(Cl)c1Cl | 8.78
Nc1nc(=S)c2[nH]cnc2[nH]1 | 4.01
Clc1cc(Cl)c(Cl)c(Cl)c1 | 4.87
CC(OC(=O)c1cc(Oc2ccc(C(F)(F)F)cc2Cl)ccc1[N+](=O)[O-])C(=O)O (stereo unspecified) | 4.5
CO/C=C(/C(=O)OC)c1ccccc1Oc1cc(Oc2ccccc2C#N)ncn1 | 6.39
CC(=O)OCC(CCn1cnc2cnc(N)nc21)COC(C)=O | 2.59
CC1(C)[C@H](/C=C(\Cl)C(F)(F)F)[C@@H]1C(=O)O[C@@H](C#N)c1cccc(Oc2ccccc2)c1 | 8.68
Clc1ccc(-c2ccc(Cl)c(Cl)c2)cc1Cl | 8.16
CC(=O)Oc1c(C)cc(OCC(O)CNC(C)C)c(C)c1C (stereo unspecified) | 3.92
COC(=O)C1=C(C)NC(C)=C(C(=O)OCC(C)C)C1c1ccccc1[N+](=O)[O-] (stereo unspecified) | 4.07
O=C(O)c1cc(Oc2ccc(C(F)(F)F)cc2Cl)ccc1[N+](=O)[O-] | 4.26
BrC=C(Br)Br | 4.33
CCC(CC)Nc1c([N+](=O)[O-])cc(C)c(C)c1[N+](=O)[O-] | 3.73
CCCCN(CC)C(=O)SCCC | 4.47
CN=C=S | 5.42

SMILES | 48 h LC50 (-log10 mol/L)
N/C(=N\N=C\c1ccc(Cl)cc1)N/N=C/c1ccc(Cl)cc1 | 6.65
CN(C)C(=N)N=C(N)N | 1.98
O=C(O)/C=C\C(=O)O | 2.76
NC[C@@H]1O[C@H](O[C@H]2[C@@H](O)[C@H](O[C@@H]3[C@@H](O)[C@H](N)C[C@H](N)[C@H]3O[C@H]3O[C@H](CO)[C@@H](O)[C@H](O)[C@H]3N)O[C@@H]2CO)[C@H](N)[C@@H](O)[C@@H]1O | 3.09
N#CSCSC#N | 6.25
CC(Cc1ccc(C(C)(C)C)cc1)CN1C[C@@H](C)O[C@@H](C)C1 (stereo partly specified) | 5.1
Cc1c(COC(=O)[C@@H]2[C@H](/C=C(\Cl)C(F)(F)F)C2(C)C)cccc1-c1ccccc1 | 8.11
CC1(C)C(C=C(Cl)Cl)C1C(=O)OCc1cccc(Oc2ccccc2)c1 (stereo unspecified) | 8.07
Cn1cc(-c2ccccc2)c(=O)c(-c2cccc(C(F)(F)F)c2)c1 | 4.9
CCCCC | 3.87
O[C@@H](CS)[C@@H](O)CS | 3.76
COc1ccccc1OCCNCC(O)COc1cccc2[nH]c3ccccc3c12 (stereo unspecified) | 5.13
C=C1C[C@]23C[C@@]1(O)CC[C@H]2[C@@]12C=C[C@H](O)[C@@](C)(C(=O)O1)[C@H]2[C@@H]3C(=O)O | 4.19
COc1ccc(NC(=O)N(C)C)cc1Cl | 3.15
CC[C@H]1OC(=O)[C@H](C)[C@@H](O[C@H]2C[C@@](C)(OC)[C@@H](O)[C@H](C)O2)[C@H](C)[C@@H](O[C@@H]2O[C@H](C)C[C@H](N(C)C)[C@H]2O)[C@](C)(O)C[C@@H](C)C(=O)[C@H](C)[C@@H](O)[C@]1(C)O | 3.28
CCCN(CCC)C(=S)SSC(=S)N(CCC)CCC | 6.19
C[C@]12CC[C@H]3[C@@H](CCC4=CC(=O)CC[C@@]43C)[C@@H]1CC[C@@H]2O | 5.17
CC(C)(C)CC(C)(C)c1ccc(O)cc1 | 6.36
c1ccc(NNc2ccccc2)cc1 | 4.65
Fc1ccc([C@@H]2CCNC[C@H]2COc2ccc3c(c2)OCO3)cc1 | 5.75
CC(C)(C)NC(=O)[C@H]1CC[C@H]2[C@@H]3CC[C@H]4NC(=O)C=C[C@]4(C)[C@H]3CC[C@]12C | 4.25
N#Cc1ncccn1 | 3.34
COC(=O)c1ccccc1C(=O)OC | 3.77
CCN(CC)C(=O)SCc1ccc(Cl)cc1 | 5.55
